In test [1] the target is T1, bovine erythrocyte CA (Bos taurus, UniProt P00921). The following applies: sample 0.5 mM in DMSO, 15 min incubation with enzyme at room temperature.
Test [2] concerns the target T1, bovine erythrocyte CA. Conditions: test concentration not given; Figure 2.
In test [3] the target is T1, bovine erythrocyte CA. Put plainly: biochemical.

T1 sequence (P00921 whole entry): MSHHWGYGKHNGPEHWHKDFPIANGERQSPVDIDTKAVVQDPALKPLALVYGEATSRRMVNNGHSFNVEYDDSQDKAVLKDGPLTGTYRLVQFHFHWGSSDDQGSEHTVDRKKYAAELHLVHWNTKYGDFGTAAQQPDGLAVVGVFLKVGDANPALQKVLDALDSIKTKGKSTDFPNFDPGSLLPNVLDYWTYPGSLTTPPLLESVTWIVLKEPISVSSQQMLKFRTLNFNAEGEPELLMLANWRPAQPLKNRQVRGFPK

For orientation: % inhibition means the change of the read-out against control, counted positive when it falls. Low values mean a weak effect, high ones a strong effect. Broadly, the IC50 is the concentration that inhibits the measured activity by half. Low values mean higher potency, high ones lower potency. On to `CCCC1=NOC(=O)/C1=C/c1cccs1` [AC2, (E)-3-Propyl-4-(thiophen-2-ylmethylene) Isoxazol-5(4H)-one], for which, on bovine erythrocyte CA [1], the “enhancement of fluorescence signal after complex formation with CA” value was “significant fluorescence enhancement”. In addition, the “% inhibition” value on bovine erythrocyte CA [2] is reported as 79.5%. On bovine erythrocyte CA [3], this compound came in with an IC50 of 112 ± 1.6 µM.
In the case of `CCCC1=NOC(=O)/C1=C/c1ccc(O)cc1` [AC4, (E)-4-(4-Hydroxybenzylidene)-3-propylisoxazol-5(4H)-one], at bovine erythrocyte CA [2], the “% inhibition” value is on record as 50.5%.
“(E)-4-(2-Methoxybenzylidene)-3-propylisoxazol-5(4H)-one [AC3]”: at bovine erythrocyte CA [1], the “enhancement of fluorescence signal after complex formation with CA” value is “significant fluorescence enhancement”. In addition, the “% inhibition” value at bovine erythrocyte CA [2] was determined as 68.7%.
For `CCCC1=NOC(=O)/C1=C/c1ccc(OC)cc1O` [AC1, (E)-4-(2-Hydroxy-4-methoxybenzylidene)-3-propylisoxazol-5(4H)-one], the “% inhibition” value on bovine erythrocyte CA [2] worked out at 58.4%.

These data come from publication PMC9434621 (ACS Omega, 2022).
